US5646136A, “Methods of inhibiting angiogenesis and tumor growth, and treating ophthalmologic conditions with angiostatic and therapeutic steroids” (Duke University, priority 1994, dated 1997)

Columns and labels:
human pancreatic cancers = assay: Inhibition of human pancreatic cancers; settings: in particular cancers rich in glucocorticoid receptors
glucocorticoid activity = assay: Glucocorticoid activity (general statements)
[1] = test system: corneal neovascularization; assay: Inhibition of corneal neovascularization in cauterized rat corneas, topical application four times per day for four days; assay type: in vivo; settings: for Neovascularization (percent of the corneal area occupied by blood vessels): mean ± S.D.; for Percent Inhibition of neovascularization: versus vehicle
Description: (§1) The ability of etianic acids to inhibit angiogenesis was evaluated in vivo in rats. Each animal had its corneas cauterized with silver nitrate/potassium nitrate. The cauterization causes the normally avascular cornea to undergo neovascularization (anglogenesis). This animal model, refined by Proia et al., Lab. Invest. 58: 473-479 (1988) and now a well-established assay, quantifies corneal neovascularization by computerized image analysis. […] Ophthalmol. Vis. Science 30: 1588-1593 (1989), and can provide a more definitive evaluation of angiostatic activity than models using the chorioallantoic membrane in the chick egg or the rabbit eye model. See Proia et al., Exp. Eye Res. (in press--to be published in Vol. 57 in 1993).
(§2) Female rats were obtained from Zivic-Miller Laboratories, Zelienople, Pa. There were 6-8 rats included in each treatment group. Neovascularization was induced by cauterizing both corneas of each anesthetized rat; this was performed by applying the tip of a silver nitrate/potassium nitrate to the cornea for 5-7.5 seconds.
The corneal tissues were treated with steroid formulations.
Steroids were formulated in vehicle containing 10 percent Tween 20 (polyoxyethylene sorbitan monolaurate) dissolved in 0.9 percent saline with percent (by volume) 0.2M tris (hydroxymethyl)aminomethane, pH 7.4. […] All steroids were tested at a concentration of 1 percent; additionally, some formulations were also tested at 0.01 percent, 0.1 percent, and 2.5 percent. Three 10 μl drops of each concentration of steroid were applied topically to each cauterized cornea four times per day (8:00 a.m., noon, 4:00 p.m., and 8:00 p.m.).
(§3) After four days of treatment, the animals were euthanized by rapid asphyxiation in a carbon dioxide chamber. The vasculature was perfused with a mixture of 10 percent india ink/11 percent gelatin/lactated Ringer's solution. Corneal tissue was dissected and prepared as flat mounts. During dissection, the corneas were examined with a dissecting microscope, and the degree of neovascularization was graded numerically from 1+ to 4+. After dehydration with alcohols, cleaning with xylene, mounting, and drying, the area of each cornea and the length of blood vessels were determined by computerized image analysis.
Statistical evaluation of inhibition of corneal neovascularization by each concentration of drug was evaluated using Mann Whitney U Tests (one-tailed; P<0.05=significant difference). […] In all cases, however, image analysis was used to quantitatively confirm visual observations.

thymus = assay: Thymus weight of rats treated topically in the corneal angiogenesis study; assay type: in vivo, rat
Description: as §1, §2
(§4) Steroids were formulated in vehicle containing 10 percent Tween 20 (polyoxyethylene sorbitan monolaurate) dissolved in 0.9 percent saline with percent (by volume) 0.2M tris (hydroxymethyl)aminomethane, pH 7.4. The steroids dissolved readily when the pH was adjusted to 7.0-8.0 with NaOH or KOH. All steroids were tested at a concentration of 1 percent; additionally, some formulations were also tested at 0.01 percent, 0.1 percent, and 2.5 percent. Three 10 μl drops of each concentration of steroid were applied topically to each cauterized cornea four times per day (8:00 a.m., noon, 4:00 p.m., and 8:00 p.m.).
as §3

[2] = Body weight of rats treated topically in the corneal angiogenesis study; assay type: in vivo, rat; settings: topical, all concentrations
Description: as §1, §2, §4
as §3, with “Corneal tissue was dissected and prepared as flat mounts. During dissection, the corneas were examined with a dissecting microscope, and the degree of neovascularization was graded numerically from 1+ to 4+.” left out

[3] = test system: corneal neovascularization; assay: Corneal angiogenesis inhibition, subcutaneous injection once/day; assay type: in vivo, rat
Description: as §1, §2, §3
The ability of compounds 2013, 518, and 513 to inhibit corneal angiogenesis when injected subcutaneously once/day to was assessed on rats prepared as described in Example 8. Dexamethasone was used as a positive control.

rat corneas = assay: Histological study of steroid-treated cauterized corneal tissue; assay type: in vivo; settings: 1 percent topical QID
Description: A histological study was performed in which either vehicle or 1 percent compound 2013 (17β-carboxylic acid derivative of prednisolone) was applied topically (QID) to rat corneas cauterized as described in Example 23. Five rats were included in each experimental group. The rats were killed either one or four days after treatment.
Histological sections were prepared through the cautery site.

[4] = test system: Dunning R3327 (PAP) prostatic adenocarcinoma; settings: in vitro; cited from earlier work
[5] = test system: Kirsten murine sarcoma virus transformed human skin fibroblasts; settings: cited from earlier work
MCF-7 breast cancer = settings: in vitro; cited from earlier work

Question: Which results are given for `C[C@]12C=C(C(=O)O)C(=O)C=C1CC[C@@H]1[C@@H]2[C@@H](O)C[C@@]2(C)[C@H]1CC[C@]2(C)O` [2-carboxyl-11β,17β-dihydroxy-17α-methyl-1,4-androstadien-3-one]?
Answer: Inhibition of human pancreatic cancers (in words) (human pancreatic cancers): inhibits certain human pancreatic cancers, and in particular inhibits those cancers rich in glucocorticoid receptors; Glucocorticoid activity (in words) (glucocorticoid activity): anti-glucocorticoid

Question: For `C[C@]12C=CC(=O)C=C1CC[C@@H]1[C@@H]2[C@@H](O)C[C@@]2(C)[C@H]1CC[C@]2(O)C(=O)O` [Compound 2013, 17β-carboxyl-11β,17α-dihydroxy-3-oxo-1,4-androstadiene], which “Neovascularization (percent of the corneal area occupied by blood vessels)” value ([1]; Experiment A, topical 0.01%) is on record?
Answer: 26.2 ± 6.3%

Question: And the “Percent Inhibition of neovascularization” value ([1]; Experiment A, topical 0.01%)?
Answer: +21%

Question: And the “Neovascularization (percent of the corneal area occupied by blood vessels)” value ([1]; Experiment A, topical 0.1%)?
Answer: 13.9 ± 7.3%

Question: What about the “Percent Inhibition of neovascularization” value ([1]; Experiment A, topical 0.1%) of the same compound?
Answer: 36%

Question: And the “Neovascularization (percent of the corneal area occupied by blood vessels)” value ([1]; Experiment A, topical 1.0%)?
Answer: 9.8 ± 2.0%

Question: What about the “Percent Inhibition of neovascularization” value ([1]; Experiment A, topical 1.0%) of the same compound?
Answer: 55%

Question: What about the “Neovascularization (percent of the corneal area occupied by blood vessels)” value ([1]; Experiment B, topical 0.01%) of the same compound?
Answer: 18.3 ± 4.0%

Question: What about the “Percent Inhibition of neovascularization” value ([1]; Experiment B, topical 0.01%) of the same compound?
Answer: 22%

Question: And the “Neovascularization (percent of the corneal area occupied by blood vessels)” value ([1]; Experiment B, topical 0.1%)?
Answer: 14.6 ± 6.8%

Question: And the “Percent Inhibition of neovascularization” value ([1]; Experiment B, topical 0.1%)?
Answer: 38%

Question: What about the “Neovascularization (percent of the corneal area occupied by blood vessels)” value ([1]; Experiment B, topical 1.0%) of the same compound?
Answer: 16.0 ± 3.6%

Question: And the “Percent Inhibition of neovascularization” value ([1]; Experiment B, topical 1.0%)?
Answer: 32%

Question: What about the “Inhibition of corneal vascularization (significance, in words)” value ([1]; applied topically) of the same compound?
Answer: did cause significant inhibition of corneal vascularization

Question: What about the “Change in thymus weight (in words)” value (thymus; topical 0.1 percent) of the same compound?
Answer: no significant effect on thymus weight

Question: And the “Decrease of thymus weight from control” value (thymus; topical 1 percent)?
Answer: 27%

Question: And the Thymus weight (thymus; topical 1 percent, four days)?
Answer: 0.207±0.035 gm

Question: And the “Effect on body weight (in words)” value [2]?
Answer: Body weight was unaffected by treatment with any concentration

Question: What about the Neovasc. ([3]; 10 mg/kg/day subcutaneous) of the same compound?
Answer: 21.5 ± 6.3%

Question: And the Neovasc. ([3]; 25 mg/kg/day subcutaneous)?
Answer: 17.1 ± 3.0%

Question: What about the “Degree of leukocytic infiltrate versus vehicle (in words)” value (rat corneas; 24 or 96 hours post-cautery) of the same compound?
Answer: no difference in the degree of leukocytic infiltrate

Question: And the “Corneal reepithelialization and neovascularization (in words)” value (rat corneas; 24 hours after cautery)?
Answer: Neither corneal reepithelialization nor neovascularization were observed

Question: What about the “Corneal reepithelialization (in words)” value (rat corneas; 96 hours post-cautery) of the same compound?
Answer: all corneas were reepithelialized

Question: And the “Neovascularization (histological)” value (rat corneas; 96 hours post-cautery)?
Answer: 0.6±0.6

Question: What about the “Neovascularization versus vehicle (in words)” value (rat corneas; 96 hours post-cautery) of the same compound?
Answer: marked reduction in neovascularization

Question: What about the “Growth inhibition of Dunning R3327 (PAP) (in words)” value [4] of the same compound?
Answer: inhibits growth of the Dunning R3327 (PAP) prostatic adenocarcinoma

Question: What about the “Neodifferentiation into adipose cells (in words)” value [5] of the same compound?
Answer: promotes neodifferentiation

Question: Which “Inhibition of MCF-7 breast cancer (in words)” value (MCF-7 breast cancer) does the source give for `C[C@]12C=CC(=O)C=C1CC[C@@H]1[C@@H]2[C@@H](O)C[C@@]2(C)[C@H]1CC[C@]2(O)C(=O)NCc1ccccc1` [benzylamide derivative, prednienic acid benzylamide] here?
Answer: inhibits MCF-7 breast cancer
